From ChEMBL document CHEMBL1201862, “PubChem BioAssay data set” (2004)
Where “and” joins values, the source holds several entries; their conditions need not be identical. Equal values may be shown once.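 Dose response: 5 concentrations. Exposure: 48 h. Format: 96-well plates. Endpoint: linear interpolation; highest concentration if not reached. GI50 is the concentration that inhibits growth by half.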 Calls of active or inactive are those of the source. No stated cut-off is given here; in the data, active = GI50 up to about 1.1 µM and inactive = higher.

Columns and labels:
Assay in all cases: NCI tumour cell line growth inhibition, 48 h
K562 = system: K562
NCI-H460 = system: NCI-H460
M14 = system: M14
COLO 205 = system: COLO 205
Malme-3M = system: Malme-3M
RPMI-8226 = system: RPMI-8226
SR = system: SR
HT-29 = system: HT-29
OVCAR-8 = system: OVCAR-8
SW-620 = system: SW-620
A498 = system: A498
OVCAR-4 = system: OVCAR-4
EKVX = system: EKVX
SK-MEL-28 = system: SK-MEL-28
HOP-62 = system: HOP-62
LOX IMVI = system: LOX IMVI
U-251 = system: U-251
HOP-92 = system: HOP-92
SF-268 = system: SF-268
SNB-75 = system: SNB-75

| SMILES | GI50 (K562) | GI50 (NCI-H460) | GI50 (M14) | GI50 (COLO 205) | GI50 (Malme-3M) | GI50 (RPMI-8226) | GI50 (SR) | GI50 (HT-29) | GI50 (OVCAR-8) | GI50 (SW-620) | GI50 (A498) | GI50 (OVCAR-4) | GI50 (EKVX) | GI50 (SK-MEL-28) | GI50 (HOP-62) | GI50 (LOX IMVI) | GI50 (U-251) | GI50 (HOP-92) | GI50 (SF-268) | GI50 (SNB-75) |
| --- | --- | --- | --- | --- | --- | --- | --- | --- | --- | --- | --- | --- | --- | --- | --- | --- | --- | --- | --- | --- |
| OC(CBr)C(O)C(O)C(O)CBr (stereo unspecified) | > 87.9 µM (inactive) | 8.3 µM (inactive) and 10.7 µM (inactive) | 28.1 µM (inactive) | > 53.6 µM (inactive) | > 100 µM (inactive) and > 85.5 µM (inactive) | > 65.8 µM (inactive) and > 38.5 µM (inactive) | > 100 µM (inactive) | > 100 µM (inactive) and > 56 µM (inactive) | > 100 µM (inactive) and 59.4 µM (inactive) | > 87.7 µM (inactive) | > 61.9 µM (inactive) | > 100 µM (inactive) and > 81.5 µM (inactive) | > 75.7 µM (inactive) | > 92.7 µM (inactive) | 28.1 µM (inactive) and 28.3 µM (inactive) | 51.6 µM (inactive) and 40.9 µM (inactive) | > 43.2 µM (inactive) and > 63.8 µM (inactive) |  |  |  |
| COc1cc2c(cc1OC)C(=O)/C(=C/c1ccc(N(C)C)cc1)CC2 | > 10 µM (inactive) | > 10 µM (inactive) | > 10 µM (inactive) | > 10 µM (inactive) | > 10 µM (inactive) | > 10 µM (inactive) | > 10 µM (inactive) | > 10 µM (inactive) | > 10 µM (inactive) | > 10 µM (inactive) |  | > 10 µM (inactive) | > 10 µM (inactive) | > 10 µM (inactive) | > 10 µM (inactive) | > 10 µM (inactive) | > 10 µM (inactive) | > 10 µM (inactive) | > 10 µM (inactive) |  |
| COc1ccc2c(c1)C(=O)CC(C(N)=O)C2 (stereo unspecified) | > 100 µM (inactive) | > 100 µM (inactive) | > 100 µM (inactive) | > 100 µM (inactive) | > 100 µM (inactive) | > 100 µM (inactive) | > 100 µM (inactive) | > 100 µM (inactive) | > 100 µM (inactive) | > 100 µM (inactive) |  | > 100 µM (inactive) | > 100 µM (inactive) | > 100 µM (inactive) | > 100 µM (inactive) | > 100 µM (inactive) | > 100 µM (inactive) | > 100 µM (inactive) | > 100 µM (inactive) | 53.1 µM (inactive) |
| CCC(CC)C(=O)OC[n+]1ccc(-c2c(COC(=O)NC(C)C)c(COC(=O)NC(C)C)c3n2CCC3)cc1 | > 100 µM (inactive) |  | > 100 µM (inactive) | > 100 µM (inactive) |  | > 100 µM (inactive) | 36.7 µM (inactive) |  | > 100 µM (inactive) | > 100 µM (inactive) | > 100 µM (inactive) | > 100 µM (inactive) | > 100 µM (inactive) |  | > 100 µM (inactive) |  | > 100 µM (inactive) | > 100 µM (inactive) |  |  |
| FC(F)(F)C1(Cl)C(Cl)(c2ccccc2)C1(Cl)c1ccccc1 (stereo unspecified) | 33.7 µM (inactive) | 15.8 µM (inactive) | 16.4 µM (inactive) | 19.2 µM (inactive) |  | 27.7 µM (inactive) | 7.08 µM (inactive) | 14.8 µM (inactive) | 18 µM (inactive) | 15.7 µM (inactive) |  | 14.2 µM (inactive) | 16.3 µM (inactive) | 14.9 µM (inactive) | 16.3 µM (inactive) | 13.3 µM (inactive) | 14.7 µM (inactive) | 12.3 µM (inactive) | 17.3 µM (inactive) | 16.3 µM (inactive) |
| O=c1[nH]c(C2CCCCC2)nc2ccc(Cl)cc12 | > 100 µM (inactive) |  |  | > 100 µM (inactive) | > 100 µM (inactive) | > 100 µM (inactive) | > 100 µM (inactive) | > 100 µM (inactive) | > 100 µM (inactive) | > 100 µM (inactive) |  |  | > 100 µM (inactive) | > 100 µM (inactive) |  |  | > 100 µM (inactive) | > 100 µM (inactive) | > 100 µM (inactive) | 38.3 µM (inactive) |
| CCN(CC)CC1CCCCCCCCCCC1=O (stereo unspecified) | > 100 µM (inactive) | > 100 µM (inactive) | > 100 µM (inactive) | > 100 µM (inactive) | > 100 µM (inactive) | > 100 µM (inactive) | > 100 µM (inactive) | > 100 µM (inactive) | > 100 µM (inactive) | > 100 µM (inactive) | > 100 µM (inactive) | > 100 µM (inactive) | > 100 µM (inactive) | > 100 µM (inactive) | > 100 µM (inactive) | > 100 µM (inactive) | > 100 µM (inactive) |  | > 100 µM (inactive) | 42.3 µM (inactive) |
| O=C(Nc1ccc(/N=N/c2ccccc2)cc1)Sc1ccccc1C(=O)O | > 100 µM (inactive) | > 100 µM (inactive) | > 100 µM (inactive) | > 100 µM (inactive) |  | > 100 µM (inactive) | > 100 µM (inactive) | > 100 µM (inactive) | > 100 µM (inactive) | > 100 µM (inactive) | > 100 µM (inactive) | > 100 µM (inactive) | > 100 µM (inactive) | > 100 µM (inactive) | > 100 µM (inactive) | > 100 µM (inactive) | > 100 µM (inactive) |  | > 100 µM (inactive) | > 100 µM (inactive) |
| COc1ccc(-c2c(-c3ccccc3)c(C)nc3[nH]c(=S)[nH]c(=S)c23)cc1OC | 31.2 µM (inactive) | 24.3 µM (inactive) | 36.1 µM (inactive) | 25.3 µM (inactive) | 30.8 µM (inactive) | 21.6 µM (inactive) |  | 41 µM (inactive) | 42 µM (inactive) | 61.7 µM (inactive) | 28.2 µM (inactive) | > 100 µM (inactive) | 54.8 µM (inactive) | 22.1 µM (inactive) | 33.1 µM (inactive) | 28.2 µM (inactive) | 33.4 µM (inactive) | 33.8 µM (inactive) | 23.9 µM (inactive) | 42 µM (inactive) |
| O=S(OC12CC3CC(CC(C3)C1)C2)c1cc(Cl)cc(Cl)c1OCc1ccccc1 (stereo unspecified) | > 100 µM (inactive) | > 100 µM (inactive) | > 100 µM (inactive) |  | > 100 µM (inactive) |  | > 100 µM (inactive) | > 100 µM (inactive) |  |  | > 100 µM (inactive) | > 100 µM (inactive) | > 100 µM (inactive) | > 100 µM (inactive) | > 100 µM (inactive) | > 100 µM (inactive) | > 100 µM (inactive) |  | > 100 µM (inactive) | > 100 µM (inactive) |
| CSc1nc(NCc2ccccc2)c2cnn(COCCO)c2n1 | 40.1 µM (inactive) | 39.3 µM (inactive) | 67.8 µM (inactive) | 29.9 µM (inactive) | 42.9 µM (inactive) | 38.5 µM (inactive) | 69.7 µM (inactive) | 37.8 µM (inactive) | 42.7 µM (inactive) | > 100 µM (inactive) |  | 29.4 µM (inactive) | 21.4 µM (inactive) |  | > 100 µM (inactive) | 38.6 µM (inactive) | 44.5 µM (inactive) | 18.2 µM (inactive) | 43.8 µM (inactive) | 0.152 µM (active) |
| COC(=O)C1CCCN1C(=O)OC(C)(C)C (stereo unspecified) | > 100 µM (inactive) | > 100 µM (inactive) |  | > 100 µM (inactive) |  |  | > 100 µM (inactive) | > 100 µM (inactive) |  | > 100 µM (inactive) |  | > 100 µM (inactive) | > 100 µM (inactive) | > 100 µM (inactive) | > 100 µM (inactive) | > 100 µM (inactive) | > 100 µM (inactive) |  | 65.3 µM (inactive) | > 100 µM (inactive) |
| CN(NC(=O)/C(=C/c1ccc(Cl)cc1)NC(=O)c1ccccc1)c1cn[nH]c(=O)c1Cl | > 100 µM (inactive) | > 100 µM (inactive) | > 100 µM (inactive) | > 100 µM (inactive) | 54.5 µM (inactive) | 17.4 µM (inactive) | > 100 µM (inactive) | > 100 µM (inactive) | 46.9 µM (inactive) | > 100 µM (inactive) |  | > 100 µM (inactive) | 68.5 µM (inactive) | > 100 µM (inactive) | 47 µM (inactive) | 62.7 µM (inactive) | 40.9 µM (inactive) | > 100 µM (inactive) | > 100 µM (inactive) | 59 µM (inactive) |
| CC(C)C(=O)OCN(C)c1nc(N(C)COC(=O)C(C)C)nc(N(C)COC(=O)C(C)C)n1 | 30.5 µM (inactive) | 21.8 µM (inactive) | 17 µM (inactive) | 20.1 µM (inactive) |  | 22.8 µM (inactive) | 22.8 µM (inactive) | 25.2 µM (inactive) | 19.8 µM (inactive) | 21.6 µM (inactive) | 36 µM (inactive) | 23.8 µM (inactive) | > 100 µM (inactive) | 19.8 µM (inactive) | 33.2 µM (inactive) | 14.6 µM (inactive) |  |  | > 10 µM (inactive) | 17.8 µM (inactive) |
| Cc1nn(C(=O)c2ccccc2O)c2c1C(c1ccccc1O)SC(=N)N2 (stereo unspecified) | 3.24 µM (inactive) | 4.36 µM (inactive) | 4.54 µM (inactive) | > 10 µM (inactive) | > 10 µM (inactive) | 3.34 µM (inactive) | 1.95 µM (inactive) | > 10 µM (inactive) | 2.82 µM (inactive) | 6.11 µM (inactive) |  | 2.53 µM (inactive) | 9.27 µM (inactive) | > 10 µM (inactive) | 0.869 µM (active) | 6.1 µM (inactive) | 4.39 µM (inactive) | > 10 µM (inactive) | 6.81 µM (inactive) | 4.06 µM (inactive) |
| O=CN1CCN(c2ccc3ccc(O)nc3n2)CC1 | > 100 µM (inactive) | > 100 µM (inactive) | > 100 µM (inactive) | > 100 µM (inactive) | > 100 µM (inactive) | > 100 µM (inactive) | > 100 µM (inactive) | > 100 µM (inactive) | > 100 µM (inactive) | > 100 µM (inactive) |  | > 100 µM (inactive) | > 100 µM (inactive) | > 100 µM (inactive) | > 100 µM (inactive) | > 100 µM (inactive) | > 100 µM (inactive) | > 100 µM (inactive) | 69.8 µM (inactive) | > 100 µM (inactive) |
